Measurements as given in patent publication US20150209281A1, “LIPOSOMAL COMPOSITIONS OF EPOXYKETONE-BASED PROTEASOME INHIBITORS” (ONYX THERAPEUTICS, INC., priority 2012, published 2015).
In brackets after ≈: the same amount, converted by molar mass. Like-named read-outs stand apart in the source and are kept apart here.

Experiment: Aqueous solubility of carfilzomib
Type: physicochemical

Work on `CC(C)C[C@H](NC(=O)[C@H](CCc1ccccc1)NC(=O)CN1CCOCC1)C(=O)N[C@@H](Cc1ccccc1)C(=O)N[C@@H](CC(C)C)C(=O)[C@@]1(C)CO1` [carfilzomib] yielded a solubility (30 °C, simulated gastric fluid, thermodynamic from solid, 0.1M HCl aqueous solution, ~pH 1, read-out: Approximate carfilzomib solubility at pH 1) of about 1800 µg/mL (≈ 2500 µM) and a solubility (aqueous medium, read-out: aqueous solubility) of under 1 µg/mL.
